This is an account of results in US6906198B1, “Antipicornaviral compounds, their preparation and use” (Agouron Pharmaceuticals, Inc., priority 1998, dated 2005).

Where two headings read alike, the source gives them in different places. Where only a bound is given, the exact number is not on record here.

Data set [1] is described as follows: Cytotoxicity in mock-infected H1-HeLa cells (antirhinoviral assay, XTT). Type of data set: cell-based. The following applies: human, 50% cytotoxic dose. As for the experimental part:
(§1) H1-HeLa cells were infected with HRV-14 at a multiplicity of infection (m.o.i.) of 0.13 (virus particles/cell) or mock-infected with medium only. Infected or mock-infected cells were resuspended at 8×10^5 cells per mL, and incubated with appropriate concentrations of the compounds to be tested. Two days later, XTT/PMS was added to test plates and the amount of formazan produced was quantified spectrophotometrically at 450/650 nm. The EC50 value was calculated as the concentration of compound that increased the percentage of formazan production in compound-treated, virus-infected cells to 50% of that produced by compound-free, mock-infected cells. The 50% cytotoxic dose (CC50) was calculated as the concentration of compound that decreased the percentage of formazan produced in compound-treated, mock-infected cells to 50% of that produced by compound-free, mock-infected cells. The therapeutic index (TI) was calculated by dividing the CC50 value by the EC50 value.
(§2) All strains of human rhinovirus (HRV) for use in this assay were purchased from American Type Culture Collection (ATCC), except for HRV serotype-14 (produced from the infectious cDNA clone constructed by Dr. Robert Rueckert, Institute for Molecular Virology, University of Wisconsin, Madison, Wis.). HRV stocks were propagated and viral assays were performed in H1-HeLa cells (ATCC). Cells were grown in minimal essential medium with 10% fetal bovine serum, available from Life Technologies (Gaithersburg, Md.).

The subject of a further data set is HRV-14. In words: Antirhinoviral H1-HeLa cell culture assay (XTT), HRV-14. The data set is classed as cell-based, human rhinovirus. As for the experimental part: Antirhinoviral H1-HeLa Cell Culture Assay
In this cell protection assay, the ability of compounds to protect cells against HRV infection was measured by the XTT dye reduction method, which is described in Weislow et al., J. Natl. Cancer Inst. 1989, vol. 81, 577-586.
as §1, §2
The compounds were tested against control compounds WIN 51711, WIN 52084, and WIN 54954 (obtained from Sterling-Winthrop Pharmaceuticals), Pirodavir (obtained from Janssen Pharmaceuticals), and Pleconaril (prepared according to the method described in Diana et al., J. Med. Chem 1995, vol. 38, 1355). Antiviral data obtained for the test compounds are shown in Tables 1 and 3, where all data are for HRV serotype-14 unless otherwise noted in parentheses.

The mark [2] stands for this setting: HRV serotype-14, H1-HeLa cells (Table 1), read-out: Cell Protection EC50.
Setting [3] is: HRV serotype-14, H1-HeLa cells (Table 3), read-out: EC50.

On to `CCOC(=O)/C=C/[C@H](CN1CCNC1=O)NC(=O)[C@H](Cc1ccccc1)NC(=O)[C@H](CC(C)C)NC(=O)OCc1ccccc1`, for which the melting point was 161 to 164 °C. As for `CCOC(=O)/C=C/[C@H](CCC(N)=O)NC(=O)[C@H](Cc1ccccc1)NC(=O)[C@H](CC(C)C)NC(=O)c1cc(C)on1` [(A-1), Ethyl-3-((5′-Methylisoxazole-3′-carbonyl)-L-Leu-L-Phe-L-Gln)-E-Propenoate], the melting point lay within 223 to 225 °C. For the same compound, in data set [1], the cytotoxic concentration (CC50) at 2 days is greater than 100 µM. Regarding `CCOC(=O)/C=C/[C@H](CCC(N)=O)NC(=O)[C@H](Cc1ccccc1)NC(=O)[C@H](CC(C)C)NC(=O)c1ccno1` [(A-2), Ethyl-3-((Isoxazole-5′-carbonyl)-L-Leu-L-Phe-L-Gin)-E-Propenoate], the CC50 at 2 days in data set [1] is greater than 100 µM.

In turn, `CCOC(=O)/C=C/[C@H](CCC(N)=O)NC(=O)[C@H](Cc1ccc(C)cc1)NC(=O)[C@@H](NC(=O)c1cc(C)on1)C(C)(C)C` [(A-3), Ethyl-3-((5′-Methylisoxazole-3′-carbonyl)-L-α-(t-Butyl-Gly)-L-(4-Me-Phe)-L-Gln)-E-Propenoate] returned a cytotoxic concentration (CC50) at 2 days in data set [1] greater than 10 µM.

`CCOC(=O)/C=C/[C@H](CCC(N)=O)NC(=O)[C@H](Cc1ccc(F)cc1)NC(=O)[C@@H](NC(=O)c1cc(C)on1)C(C)(C)C` [(A-4), Ethyl-3-((5′-Methylisoxazole-3′-carbonyl)-L-α-(t-Butyl-Gly)-L-(4-F-Phe)-L-Gln)-E-Propenoate]: the CC50 at 2 days in data set [1] was greater than 100 µM. Still for that read-out and setting: under `CCOC(=O)/C=C/[C@H](CCC(N)=O)NC(=O)[C@H](Cc1ccc(F)cc1)NC(=O)[C@@H](NC(=O)c1cc(C)on1)C(C)C` [(A-6), Ethyl-3-[(5′-Methylisoxazole-3′-carbonyl)-L-Val-L-(4-F-Phe)-L-Gln]-E-Propenoate] stands greater than 100 µM; under `CCOC(=O)/C=C/[C@H](CCC(N)=O)NC(=O)[C@H](Cc1ccc(F)cc1)N(C)C(=O)[C@H](Cc1c[nH]cn1)NC(=O)c1cc(C)on1` [(A-9), Ethyl-3-{(5′-Methylisoxazole-3′-carbonyl)-L-His-NCH3-L-(4-F-Phe)-L-Gln}-E-Propenoate], greater than 100 µM. On to `CCOC(=O)/C=C/[C@H](CCC(N)=O)NC(=O)[C@H](Cc1ccccc1)N(C)C(=O)[C@H](CC(C)C)NC(=O)c1cc(C)on1` [(A-10), Ethyl-3-((5′-Methylisoxazole-3′-carbonyl)-L-Leu-NCH3-L-Phe-L-Gln}-E-Propenoate], for which the EC50 with HRV-14 (Rhinovirus B, HRV14, HRV serotype-14, H1-HeLa cells (Table 1), read-out: Cell Protection EC50) is 0.14 µM; in the data set on HRV-14 (Rhinovirus B, HRV14, HRV serotype-14, H1-HeLa cells (Table 3), read-out: EC50) it was 0.14 µM. In addition, the CC50 at 2 days in data set [1] was greater than 100 µM. Compound `CCOC(=O)/C=C/[C@H](CCC(N)=O)NC(=O)[C@H](Cc1ccc(F)cc1)N(C)C(=O)[C@H](Cc1ccc2ccccc2c1)NC(=O)c1cc(C)on1` [(A-11), Ethyl-3-{(5′-Methylisoxazole-3′-carbonyl)-L-(2-Naphth)-NCH3-L-(4-F-Phe)-L-Gln}-E-Propenoate] came in with a CC50 at 2 days in data set [1] of 50 µM.

In the case of `CCOC(=O)/C=C/[C@H](CCC(N)=O)NC(=O)[C@H](Cc1ccc(F)cc1)N(C)C(=O)[C@H](CC(C)C)NC(=O)c1cc(C)on1` [(A-12), Ethyl-3-{(5′-Methylisoxazole-3′-carbonyl)-L-Leu-NCH3-L-(4-F-Phe)-L-Gln}-E-Propenoate], the CC50 at 2 days in data set [1] was greater than 100 µM. The compound `CCOC(=O)/C=C/[C@H](CCC(N)=O)NC(=O)[C@H](Cc1ccc(F)cc1)N(C)C(=O)[C@H](Cc1cccc2ccccc12)NC(=O)c1cc(C)on1` [(A-13), Ethyl-3-{(5′-Methylisoxazole-3′-carbonyl)-L-(1-Naphth)-NCH3-L-(4-F-Phe)-L-Gln}-E-Propenoate] showed a CC50 at 2 days in data set [1] greater than 10 µM. For the compound `CCOC(=O)/C=C/[C@H](CCC(N)=O)NC(=O)[C@H](Cc1ccccc1)NC(=O)[C@@H](NC(=O)c1cccs1)C(C)(C)C` [(A-14)], the EC50 in the data set with HRV-14 (setting [2]) and with HRV-14 (setting [3]) was 0.48 µM in each case. For the compound `CC(C)[C@H](NC(=O)C1SCCS1)C(=O)N[C@@H](Cc1ccc(F)cc1)C(=O)N[C@H](/C=C/C(=O)OCc1cccnc1)CCC(N)=O` [(A-18)], the EC50 in the data set on HRV-14 (setting [2]) and with HRV-14 (setting [3]) was 1.5 µM each time.

With `CCOC(=O)/C=C/[C@H](CCC(N)=O)NC(=O)[C@H](Cc1ccccc1)NC(=O)[C@H](CC(C)C)NC(=O)[C@@H]1C=CCN1` [(A-19)], the concentration giving a half-maximal response (EC50) with HRV-14 (setting [2]) and with HRV-14 (setting [3]) was 25.1 µM in each case. Consider `CCOC(=O)/C=C/[C@H](CCC(N)=O)NC(=O)[C@H](Cc1ccccc1)NC(=O)[C@H](CC(C)C)NC(=O)c1cc(C)oc1C` [(A-20)], for which the half-maximal effective concentration (EC50) in the data set with HRV-14 (setting [2]) and in the data set with HRV-14 (setting [3]) was 12.6 µM each time. With `CCOC(=O)/C=C/[C@H](CCC(N)=O)NC(=O)[C@H](Cc1ccccc1)NC(=O)[C@H](CC(C)C)NC(=O)c1nc(C)c[nH]1` [(A-21)], the EC50 in the data set with HRV-14 (setting [2]) and in the data set with HRV-14 (setting [3]) was 2.5 µM throughout. Regarding `CCOC(=O)/C=C/[C@H](C[C@@H]1CCNC1=O)NC(=O)[C@H](Cc1ccccc1)NC(=O)[C@H](CC(C)C)NC(=O)OCc1ccccc1` [(A-24), Ethyl-3-{Cbz-L-Leu-L-Phe-L-((S)-Pyrrol-Ala)}-E-Propenoate], the CC50 at 2 days in data set [1] is greater than 100 µM. Still for that read-out and setting: for `CCOC(=O)/C=C/[C@H](C[C@@H]1CCNC1=O)NC(=O)[C@H](Cc1ccccc1)NC(=O)[C@@H](NC(=O)OCc1ccccc1)C(C)C` [(A-25), Ethyl-3-{Cbz-L-Val-L-Phe-L-((S)-Pyrrol-Ala)}-E-Propenoate] the value was greater than 100 µM.

In data set [1], `CCOC(=O)/C=C/[C@H](C[C@@H]1CCCNC1=O)NC(=O)[C@H](Cc1ccccc1)NC(=O)[C@H](CC(C)C)NC(=O)OCc1ccccc1` [(A-26), Ethyl-3-{Cbz-L-Leu-L-Phe-L-((S)-Piper-Ala)}-E-Propenoate] had a CC50 at 2 days greater than 100 µM. The same measure, in the same setting: for `CCOC(=O)/C=C/[C@H](C[C@H]1CCNC1=O)NC(=O)[C@H](Cc1ccccc1)NC(=O)[C@H](CC(C)C)NC(=O)OCc1ccccc1` [(A-27), Ethyl-3-{Cbz-L-Leu-L-Phe-L-((R)-Pyrrol-Ala)}-E-Propenoate] the value was greater than 100 µM. In the case of `CCOC(=O)/C=C/[C@H](CCC(N)=O)NC(=O)[C@@H](CC(=O)[C@@H](NC(=O)c1cc(C)on1)C(C)C)Cc1ccc(F)cc1` [(B-1), Ethyl-3-{(5′-Methylisoxazole-3′-carbonyl)-L-ValΨ(COCH2)-L-(4-F-Phe)-L-Gln}-E-Propenoate], the melting point was 220 °C (dec.). Besides, the CC50 at 2 days in data set [1] was greater than 100 µM.

`Cc1cc(C(=O)N[C@H](C(=O)C[C@@H](Cc2ccc(F)cc2)C(=O)N[C@H](/C=C2\CCOC2=O)C[C@@H]2CCNC2=O)C(C)C)no1` [(B-3), 2-{(5′-Methylisoxazole-3′-carbonyl)-L-ValΨ(COCH2)-L-(4-F-Phe)-L-((S)-Pyrrol-Ala)}-E-(α-Vinyl-γ-Butyrolactone)] displayed a CC50 at 2 days in data set [1] greater than 100 µM. The same measure, in the same setting: for `CCOC(=O)/C=C/[C@H](C[C@@H]1CCCNC1=O)NC(=O)[C@@H](CC(=O)[C@@H](NC(=O)c1cc(C)on1)C(C)C)Cc1ccc(F)cc1` [(B-4), Ethyl-3-{(5′-Methylisoxazole-3′-carbonyl)-L-ValΨ(COCH2)-L-(4-F-Phe)-L-((S)-Piper-Ala)}-E-Propenoate] the value was greater than 100 µM; for `CCOC(=O)/C=C/[C@H](CCC(N)=O)NC(=O)[C@H](Cc1ccc(F)cc1)OC(=O)[C@@H](NC(=O)c1cc(C)on1)C(C)C` [(C-1), Ethyl-3-{(5′-Methylisoxazole-3′-carbonyl)-L-Val-O-L-(4-F-Phe)-L-Gln}-E-Propenoate], greater than 10 µM; for `CCOC(=O)/C=C/[C@H](C[C@@H]1CCNC1=O)NC(=O)[C@H](Cc1ccc(F)cc1)OC(=O)[C@@H](NC(=O)c1cc(C)on1)C(C)C` [(C-2), Ethyl-3-{(5′-Methylisoxazole-3′-carbonyl)-L-Val-O-L-(4-F-Phe)-L-((S)-Pyrrol-Ala)}-E-Propenoate], greater than 10 µM.

Consider `CC(C)C[C@H](NC(=O)OCc1ccccc1)C(=O)N[C@@H](Cc1ccccc1)C(=O)N[C@H](/C=C/c1ccno1)CCC(N)=O` [Comparison Compound #1, 5-(3′-(Cbz-L-Leu-L-Phe-L-Gln)-E-Propene)-Isoxazole, reference compound], for which, in data set [1], the cytotoxic concentration (CC50) at 2 days was greater than 320 µM. In turn, `CCOC(=O)/C=C/[C@H](CCC(N)=O)NC(=O)[C@H](Cc1ccccc1)NC(=O)[C@H](CC(C)C)NC(=O)OCc1ccccc1` [Comparison Compound #2, Ethyl-3-(Cbz-L-Leu-L-Phe-L-Gln)-E-Propenoate] had a melting point of 219 to 221 °C. This compound also showed a cytotoxic concentration (CC50) at 2 days in data set [1] greater than 320 µM.
